Experimental data reported in patent publication US20230272055A1, “ANTI-MUTANT CALRETICULIN (CALR) ANTIBODIES AND USES THEREOF” (Incyte Corporation, priority 2021, published 2023).

Tested on: Ba/F3-TPOR/mutCALR type 1 engineered cells
Test: Cell proliferation with antibody and/or ruxolitinib, mutCALR Type 1
Format: cell-based
Conditions: ruxolitinib alone at 50 nM; 72 hours; dotted line of FIG. 10 (Type 1 and Type 2 panels); read-out: inhibition of the level of oncogenic cell proliferation
Protocol: To test the ability of anti-mutCALR antibodies to potentiate the therapeutic response of the JAK1/2 inhibitor ruxolitinib, Ba/F3 cells were engineered to express MPL+mutCALR Type 1 (52 bp deletion) or MPL+mutCALR Type 2 (5 bp insertion) as described above. Cells were plated at 5,000 cells per well in RPMI 1640+2% FBS, treated with 50 nM of ruxolitinib and/or anti-mutCALR antibodies. Cells were incubated for 72 hours followed by assessment of cell viability using the CellTiter-Glo Luminescent Cell Viability Assay (Promega, Madison, Wis.) and Top Count (Perkin Elmer, Boston, Mass.) or Pherastar (BMG Labtech, Ortenberg, Germany) for luminescence quantification. Ruxolitinib used at a concentration of 50 nM inhibited the level of oncogenic cell proliferation by approximately 20% (dotted line).

SMILES: N#CC[C@H](C1CCCC1)n1cc(-c2ncnc3[nH]ccc23)cn1 [Ruxolitinib, ruxolitinib, reference compound]
- inhibition at 0.05 µM: ~20%
